Laboratory results taken from patent US8729054B2, “3-desoxy-2-methylene-vitamin D analogs and their uses” (Wisconsin Alumni Research Foundation, priority 2011, dated 2014).
Entries after “also recorded” stand apart in the source; their conditions may differ.

How the values were obtained:
[1] = test system: vitamin D-deficient rats; experiment: Bone calcium mobilization (serum calcium); assay type: in vivo, rat; conditions: for bone calcium mobilization activity as compared to 1,25(OH)2D3: rats on low calcium diet (0.02%), four consecutive ip doses
Experimental: (§1) Male, weanling Sprague-Dawley rats were placed on Diet 11 (Suda et al, J. Nutr. 100:1049, 1970) (0.47% Ca)+vitamins AEK for one week followed by Diet 11 (0.02% Ca)+vitamins AEK for 3 weeks. The rats were then switched to the same diet containing 0.47% Ca for one week followed by two weeks on the same diet containing 0.02% Ca. Dose administration began during the last week on 0.02% calcium diet. Four consecutive ip doses were given approximately 24 hours apart. Twenty-four hours after the last dose, blood was collected from the severed neck and the concentration of serum calcium determined by atomic absorption spectrometry as a measure of bone calcium mobilization. The first 10 cm of the intestine was also collected for intestinal calcium transport analysis using the everted gut sac method.

[2] = test system: Human promyelocytic leukemia (HL60) cells; experiment: HL-60 differentiation (nitro blue tetrazolium reduction); assay type: cell-based; conditions: for EC50: HL60 cells, four days after treatment, NBT reduction
Experimental: The study drugs were dissolved in ethanol and the concentrations determined using UV spectrophotometry. Serial dilutions were prepared so that a range of drug concentrations could be tested without changing the final concentration of ethanol (≦0.2%) present in the cell cultures.
Human promyelocytic leukemia (HL60) cells were grown in RPMI-1640 medium containing 10% fetal bovine serum. The cells were incubated at 37° C. in the presence of 5% CO2.
HL60 cells were plated at 1.2×10^5 cells/ml. Eighteen hours after plating, cells in duplicate were treated with drug. Four days later, the cells were harvested and a nitro blue tetrazolium reduction assay was performed (Collins et al., 1979; J. Exp. Med. 149:969-974). The percentage of differentiated cells was determined by counting a total of 200 cells and recording the number that contained intracellular black-blue formazan deposits. Verification of differentiation to monocytic cells was determined by measuring phagocytic activity (data not shown).

[3] = test system: 24-hydroxylase (24Ohase) gene promoter; experiment: In vitro transcription assay, luciferase reporter in ROS 17/2.8 (bone) cells; assay type: cell-based; conditions: for transcriptional activity in bone cells as compared to 1α,25-dihydroxyvitamin D3: 24-hydroxylase gene; for EC50: ROS 17/2.8 cells, luciferase, sixteen hours after dosing, read-out: EC50, transcriptional activity in bone cells (24-hydroxylase gene)
Experimental: Transcription activity was measured in ROS 17/2.8 (bone) cells that were stably transfected with a 24-hydroxylase (24Ohase) gene promoter upstream of a luciferase reporter gene (Arbour et al., 1998). Cells were given a range of doses. Sixteen hours after dosing the cells were harvested and luciferase activities were measured using a luminometer. RLU=relative luciferase units.

[4] = target: T1, full-length recombinant rat vitamin D receptor (Rattus norvegicus, UniProt P13053); experiment: Vitamin D receptor binding, competition with [3H]-1,25(OH)2D3; conditions: full-length recombinant rat VDR; for Ki: 1 nM radioligand
T1 construct: Full-length recombinant rat receptor was expressed in E. coli BL21 (DE3) Codon Plus RIL cells; histidine tag (C); made in house; host or cells: E. coli BL21 (DE3) Codon Plus RIL
T1 sequence (P13053 1-423): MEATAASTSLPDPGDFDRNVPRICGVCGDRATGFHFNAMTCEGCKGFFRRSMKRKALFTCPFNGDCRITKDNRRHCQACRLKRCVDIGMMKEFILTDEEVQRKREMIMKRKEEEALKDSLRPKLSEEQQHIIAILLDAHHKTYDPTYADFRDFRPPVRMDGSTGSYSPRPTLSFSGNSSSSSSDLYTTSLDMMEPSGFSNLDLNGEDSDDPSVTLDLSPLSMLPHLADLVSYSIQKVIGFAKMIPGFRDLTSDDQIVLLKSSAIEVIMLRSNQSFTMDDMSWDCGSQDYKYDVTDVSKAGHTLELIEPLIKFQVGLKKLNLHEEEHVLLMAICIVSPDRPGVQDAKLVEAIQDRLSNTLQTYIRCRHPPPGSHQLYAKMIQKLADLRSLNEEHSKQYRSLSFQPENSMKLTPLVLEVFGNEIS
Experimental: Full-length recombinant rat receptor was expressed in E. coli BL21 (DE3) Codon Plus RIL cells and purified to homogeneity using two different column chromatography systems. The first system was a nickel affinity resin that utilizes the C-terminal histidine tag on this protein. The protein that was eluted from this resin was further purified using ion exchange chromatography (S-Sepharose Fast Flow). Aliquots of the purified protein were quick frozen in liquid nitrogen and stored at −80° C. until use. For use in binding assays, the protein was diluted in TEDK50 (50 mM Tris, 1.5 mM EDTA, pH 7.4, 5 mM DTT, 150 mM KCI) with 0.1% Chaps detergent. The receptor protein and ligand concentration was optimized such that no more than 20% of the added radiolabeled ligand was bound to the receptor.
Radiolabeled and unlabeled ligands were added to 100 mcl of the diluted protein at a final ethanol concentration of ≦10%, mixed and incubated overnight on ice to reach binding equilibrium. The following day, 100 mcl of hydroxylapatite slurry (50%) was added to each tube and mixed at 10-minute intervals for 30 minutes. The hydroxylapaptite was collected by centrifugation and then washed three times with Tris-EDTA buffer (50 mM Tris, 1.5 mM EDTA, pH 7.4) containing 0.5% Titron X-100. After the final wash, the pellets were transferred to scintillation vials containing 4 ml of Biosafe II scintillation cocktail, mixed and placed in a scintillation counter. Total binding was determined from the tubes containing only radiolabeled ligand.

[5] = test system: vitamin D-deficient rats; experiment: Intestinal calcium transport (everted gut sac method); assay type: in vivo, rat; conditions: rats on low calcium diet (0.02%), four consecutive ip doses
Experimental: as §1

Row | EC50 [3] | affinity to the receptor as compared to 1,25(OH)2D3 [4] | Ki [4] | EC50 ([2]; Homo sapiens, HL-60, 96 h) | Compound | serum calcium levels ([1]; at the dosages tested) | EC50 [2] | mobilization of bone calcium as compared to native hormone at the same dose ([1]; 87 pmol/day for 4 consecutive days) | bone calcium mobilization activity as compared to 1,25(OH)2D3 [1] | transcriptional activity in bone cells as compared to 1α,25-dihydroxyvitamin D3 [3] | potency on HL-60 cell differentiation as compared to 1,25(OH)2D3 [2] | mobilization of bone calcium as compared to native hormone at the same dose ([1]; 780 pmol/day for 4 consecutive days) | potency on HL-60 cell differentiation relative to 1,25(OH)2D3 ([2]; compared with 1,25(OH)2D3) | intestinal calcium transport activity as compared to 1,25(OH)2D3 [5]
1 |  |  |  |  | C=C1/C(=C\C=C2/CCC[C@]3(C)[C@@H]([C@H](C)CCCC(C)(C)O)CC[C@@H]23)C[C@@H](O)C[C@@H]1O [1α,25-dihydroxyvitamin D3, reference compound] | increased serum calcium levels | 3 nM |  |  |  |  |  |  | 
2 | 0.2 nM | about the same affinity | 0.4 nM | 1 nM | C=C1CC/C(=C/C=C2\CCC[C@]3(C)[C@@H]([C@H](C)CCCC(C)(C)O)CC[C@@H]23)C(=C)[C@H]1O [3D-QM, (20R)-3-desoxy-1α,25-dihydroxy-2-methylene-vitamin D3] |  |  | only slightly less mobilization of bone calcium than the native hormone | about the same potency as the native hormone | about the same transcriptional activity | about the same potency as 1,25(OH)2D3 |  |  | 
3 | 0.03 nM | about the same affinity | 0.3 nM | 0.08 nM | C=C1CC/C(=C/C=C2\CCC[C@]3(C)[C@@H]([C@@H](C)CCCC(C)(C)O)CC[C@@H]23)C(=C)[C@H]1O [3D-QMS, (20S)-3-desoxy-1α,25-dihydroxy-2-methylene-vitamin D3] |  |  |  | more potent than the native hormone; also recorded: significantly more activity in mobilizing calcium from bone than 1,25(OH)2D3 | about the same transcriptional activity |  | higher mobilization of bone calcium than the native hormone | about 40 times | more potent than 1,25(OH)2D3
